# Several values for one entry are separate records, joined by “and”; a condition that tells them apart may be missing. Identical values can stand only once. Like-named read-outs stand apart in the source and are kept apart here. *1 amine or outer side, *2 acyl side, *3 side chain or, on linkers, in order; H or OH if unused. Where a SMILES comes first, the peptide text is derived from it. Bridges are numbered along the chain shown (N, C = ends). Roman numbers before positions name the chains, in order. [ ]: non-standard residue; d: D form. Actinocin(9to1) = Cc1c2oc3c(C)ccc(C(=O)[*:1])c3nc-2c(C(=O)[*:2])c(N)c1=O; NMeV = CN[C@H](C(=O)O)C(C)C; Sar = CNCC(=O)O
# Assays:
# [1] = test system: hypotension associated with the administration of TNF in the dog; assay: TNF-induced hypotension in the dog; type: in vivo, dogs; conditions: dog; Figure 7
# Experimental: Recombinant human TNF, specific activity 2 x 10^7 units/mg, was from the Dainippon Chemical Corporation, Tokyo, Japan. TNF was administered at a dose of 10 µg//kg in a volume of 10 ml of phosphate buffered saline containing 17 mg/ml of dog albumin. […] Arginine was obtained from Sigma Chemical Company, St. Louis, Mo.
# Four conditioned mongrel dogs, 2 males and 2 females, weighing 28 to 30 kg, were studied. Care of the animals were in accordance with the recommendations of the American Association for Accreditation of Laboratory Animals [DHEW(DHHS) publication no. (NIH) 78-23, revised, 1978]. On the day of the experiment, the dogs were fasted overnight. They were anesthetized with phenobarbital (25 mg/kg). The animals were then intubated orally with a #10 fr. endotracheal tube and ventilated with a Harvard pump ventilator at a rate of 14 breaths per minute and a tidal volume of 15 ml/kg. An arterial line was percutaneously placed in the femoral artery on the day of the experiment.
# Mean (electronic) and phasic systemic arterial pressures (SAP) were continuously recorded on a Hewlett-Packard recording system (model 7758B) using strain gauge manometers (Hewlett-Packard model 1290A) which were connected to the arterial line. Heart rate (HR) was determined from an EKG tracing and continuously recorded on the Hewlett-Packard recording system. Oxyhemoglobin saturation (SaO2) was obtained using a pulse oximeter (BIOX 111, Boulder, CO). Continuous time-series records of SAP, HR, and SaO2 were obtained using a Lab Master analog-to-digital convertor (16 channel, 12 bit, 30 kHz; Scientific Solutions, Inc.) sampling at 55 Hz and storing the 6 sec averages on a magnetic disk.
# [2] = test system: Actinomycin D-Treated L929 Cells; assay: Cytolytic activity of rh-TNF against L929 cells; type: cell-based, murine; conditions: murine L929 cells
# Experimental: TNF bioactivity was measured by the cytotoxicity towards murine L929 cells, in vitro. […]
# ET shock (lethal dose) = assay: Reversal of ET shock (lethal dose) by multiple doses of NAA; type: in vivo
# Experimental: The reversal of ET shock (lethal dose) by Nω-aminoarginine (NAA) for 4 hrs. […] Figure 8 depicts systemic arterial pressure (SAP) versus time (min). ET (2 mg/kg), a lethal dose, was infused over 60 min. and NAA administered at 97, 165, and 374 min. to maintain blood pressure. The animal was survived for 24 hours and then autopsied.
# [3] = test system: IL-1-Induced Hypotension in Dogs; assay: IL-1-induced hypotension in dogs; type: in vivo; conditions: for MAP increase after NAA: NAA 20 mg/kg iv single bolus
# Experimental: • FIGURE 1 - Reversal of hypotension associated with the administration of IL-1 to dogs. The tracing shown is a representative experiment that was repeated four times. Each dog was anesthetized and […] as described herein, and baseline cardiovascular data were monitored for 30 minutes. IL-1 was dissolved in phosphate-buffered saline (pH 7.4) containing 1 mg/ml of dog albumin, and the resulting solution was infused intravenously for three minutes to deliver a dose of 50 µg/kg. MAP was continuously monitored; when a stable nadir was reached and maintained for more than 10 minutes or when MAP dropped below 50 mm Hg, NAA (20 mg/kg in 10 ml phosphate-buffered saline) was administered by intravenous infusion for 30 seconds. Sixty minutes after MAP was restored to baseline or higher values, L-arginine (400 mg/kg in 20 ml phosphate-buffered saline) was administered by slow intravenous infusion for 5 minutes. Anesthetized dogs given IL-1 (50 µg/kg) developed a progressive, moderately severe hypotension, with MAP decreasing from a baseline of 111 +/- 7 mm Hg to 80 +/- 2 mm Hg within about 3 hours. Hypotension was rapidly reversed by the intravenous administration of a single bolus dose of NAA (20 mg/kg, 88 umol/kg), with MAP increasing by from 46 +/- 9 mm Hg (58%_ to 125 +/- 8 mm Hg. • FIGURES 2A, 2B, 2C - Inhibition of IL-1-activated NO· production by N^ω-substituted arginine analogues. Figure 2A: Comparison of nitrite synthesis inhibition in smooth muscle cells by the L-isomers of NAA, NMA, and NNA and by the D-isomer of NMA. Figure 2B: Concentration dependence of nitrite synthesis inhibition in smooth muscle cells by NAA as a function of different L-arginine concentration in the culture medium. Confluent monolayers of smooth muscle cells in 96-well microtiter plates were treated with a combination of 100 ng/ml IL-1 and 50 ng/ml IFN-γ for 24 hours. Cells were then washed with Hanks' balanced salt solution, and fresh medium containing the indicated concentration of L-arginine was added. Points indicate means ± SD of nitrite production, expressed as percent of control, during a 16-hour exposure to arginine analogues (n = 3-4). Figure 2C: Effect of NAA on smooth muscle cell NO· synthase. Cytosol from cytokine-induced smooth muscle cells (∼2 µg protein) was incubated with 1 mM L-arginine, 0.5 mM NADPH, 1 mM dithiothreitol, 10 µM flavin-adenine dinucleotide, 10 µM tetrahydrobiopterin, and 0.1 U/ml dihydropteridine reductase in a total volume of 100 µL. The time course of Fe^2+-myoglobin oxidation was measured in the absence (control) or presence of 300 µM NAA (+NAA). […] FIGURE A: Time course of nitrite synthesis elicited by 40 ng/mL IL-1 alone (open circles) and by IL-1 in the presence of 50 ng/ml IFN-γ (open triangles). […] Inclusion of IL-1 receptor antagonist (40 µg/mL; filled symbols) in the culture medium inhibited nitrite production stimulated by both IL-1 and IL-1 plus IFN-γ. FIGURE B: IL-1 concentration dependence for smooth muscle cell nitrite production. Data points indicate nitrite produced during a 29-hour incubation with the indicated concentration of IL-1 alone (open circles) or in the presence of IL-1 plus 50 ng/mL IFN-γ (open triangles). All values are means ± SD for nitrite production by confluent smooth muscle cell monolayers grown in 96-well microtiter plates (60-80 X 10^3 cells per well; n = 3-4).
# Experiments were conducted on healthy mongrel dogs that were free of microfilaria and weighed 25-28 kg each. […]
# [4] = test system: nitric oxide synthase in rat aortic smooth muscle cells; assay: Induction and assay of nitrite synthesis in smooth muscle cells; type: cell-based
# Experimental: Rat aortic smooth muscle cells were incubated with RPMI-1640 medium containing 10% bovine calf serum, 25 mM HEPES buffer (pH 7.4), 2 mM glutamine, […], and IL-1, IFN-γ, and various inhibitors at the concentrations indicated in the figure legends. At the desired times, nitrite concentration in the culture medium was measured using the standard Griess assay adapted to a 96-well microtiter plate reader.^36 The Griess assay is also described in Gross et al.^37 (1991). Thus, 100 µL of Griess reagent (0.5% sulfanilic acid, 0.05% naphthalenediamine, and 2.5% phosphoric acid) was added to an equal volume of culture medium, and the OD550 was measured and related to nitrite concentration by reference to a standard curve. […]
# Rat aortic smooth muscle cells were incubated with RPMI-1640 medium containing 10% bovine calf serum, 25 mM HEPES buffer (pH 7.4), 2mM glutamine, 80 U/mL penicillin, 80 µg/mL streptomycin, 2 µg/mL fungizone, and IL-1, IFN-γ, and various inhibitors at the concentrations indicated in the figure legends. At the desired times, nitrite concentration in the culture medium was measured using the standard Griess assay (Green, L., et al. Anal. Biochem. 126:131-138, 1982) adapted to a 96-well microtiter plate reader (Gross, S.S., et al. Biochem. Biophys. Res. Commun. 178:823-829, 1991). […]
# [5] = Cell respiration assay (MTT); type: cell-based; conditions: rat, aortic smooth muscle cells; read-out: MTT reduction [mean ± SD], of that measured in control cells treated with IL-1 alone
# Text: The extent of reduction of MTT to formazan within cells, quantitated by measurement of the optical density at 550 nm (OD550), was taken as an indicator of cellular respiration.
structure (smiles),measurement,setting,value
"N=C(NN)NCCC[C@H](N)C(=O)O [NAA, N^ω-amino-L-arginine]",reversing the hypotension associated with TNF administration,[1],as effective as NMMA
same,effect on the cytolytic effect of TNF towards tumor cells in vitro,[2],did not alter
same,survival of the animal,"ET shock (lethal dose); ET 2 mg/kg, multiple doses of NAA, then autopsied",24 h
same,"pathological changes in liver, lungs, heart, brain, bowel or kidney",ET shock (lethal dose); autopsy after 24 hours,No pathological changes were observed
same,"systemic vascular resistance after injection of NAA, higher than baseline","[3]; IL-1-treated dogs, average",43%
same,MAP increase after NAA,[3]; anesthetized dogs (n = 4) made hypotensive with IL-1 50 µg/kg,46 ± 9 mm Hg and 46 +/- 9 mm Hg
same,average increase in MAP above baseline,"[3]; control dogs not given IL-1, NAA",20.1 ± 3.8 mm Hg
same,MAP after NAA,"[3]; dogs given IL-1 50 µg/kg (MAP 80 ± 2 before NAA), NAA 20 mg/kg iv",125 ± 8 mm Hg and 125 +/- 8 mm Hg
same,average increase of MAP following NAA above the pre-IL-1 baseline MAP,"[3]; dogs given IL-1 50 µg/kg, NAA 20 mg/kg",14.3 ± 7.7 mm
same,MAP increase after NAA,[3]; dogs given IL-1 50 µg/kg,58%
same,reduction in cardiac output compared with that after IL-1,"[3]; dogs treated with IL-1, then NAA, P = .037",25.2%
same,cardiac output after NAA,"[3]; dogs treated with IL-1, then NAA, baseline 2.25, P = .204",1.93 L/min
same,decrease in cardiac output,"[3]; dogs treated with NAA alone, P = .046",29.2%
same,duration physiologically acceptable MAP readings maintained,"[3]; second and third injections of NAA (20 mg/kg), cytokine-treated dogs",up to 7 hours
same,duration MAP maintained at baseline or higher levels,"[3]; single injections of NAA (20 mg/kg) in cytokine-treated dogs, no L-arginine",up to 60 minutes
C[C@@H]1C[C@@H]([C@H](O)CC2CC(=O)NC(=O)C2)C(=O)[C@@H](C)C1 [cycloheximide],nitrite produced,[4],less than 0.1 nmol
"Cc1c2oc3c(C)ccc(C(=O)N[C@@H]4C(=O)N[C@H](C(C)C)C(=O)N5CCC[C@H]5C(=O)N(C)CC(=O)N(C)[C@@H](C(C)C)C(=O)O[C@@H]4C)c3nc-2c(C(=O)N[C@@H]2C(=O)N[C@H](C(C)C)C(=O)N3CCC[C@H]3C(=O)N(C)CC(=O)N(C)[C@@H](C(C)C)C(=O)O[C@@H]2C)c(N)c1=O [dactinomycin] (I: T[dV]P[Sar][NMeV] / II: T[dV]P[Sar][NMeV]; ester I:1-I:C, II:1-II:C; linker I:N-II:N via Actinocin(9to1))",viability,[5],101%
same,nitrite produced,"[4]; cells cultured 14 hours with IL-1 (100 ng/mL) and IFN-γ (50 ng/mL) plus 0.5 mg/mL dactinomycin or 1 mg/mL cycloheximide, then 16 hours in cytokine-free medium, control 2.52",less than 0.1 nmol

# From patent EP0663826B1, “AMINO ACIDS CONTAINING PARENTERAL FORMULATIONS FOR THE TREATMENT OF HYPOTENSION AND RELATED PATHOLOGIES” (BOARD OF REGENTS THE UNIVERSITY OF TEXAS SYSTEM, priority 1991, dated 1993)
